Experimental data from patent US8828988B2 (Tetraphase Pharmaceuticals, Inc., priority 2009, dated 2014).
Values after ≈ are worked out from the molar mass of the structure shown. Like-named read-outs stand apart in the source and are kept apart here.

Assays:
[1] = test system: Staphylococcus aureus SA100, ATCC 13709, MSSA, Smith strain; experiment: MIC assay, SA100; assay type: cell-based
[2] = test system: Streptococcus pneumoniae SP106, ATCC 49619; experiment: MIC assay, SP106; assay type: cell-based
[3] = test system: S. aureus strains collected from various geographical sources; experiment: MIC50 and MIC90 analysis (Example 22)
Procedure: (§4) Frozen bacterial strains were thawed and subcultured onto Mueller Hinton Broth (MHB) or other appropriate media (Streptococcus requires blood and Haemophilus requires hemin and NAD). Following incubation overnight, the strains were subcultured onto Mueller Hinton Agar and again incubated overnight. […] Isolated colonies were selected to prepare a starting inoculum equivalent to a 0.5 McFarland standard. […] Antibiotics (stored frozen, thawed and used within 3 hours of thawing) and compounds were further diluted to the desired working concentrations.
(§5) The assays were run as follows. Fifty μL of MHB was added to wells 2-12 of a 96-well plate. One hundred μL of appropriately diluted antibiotic or compound was added to well 1. Fifty μL of antibiotics or compound was removed from well 1 and added to well 2 and the contents of well 2 mixed by pipetting up and down five times. Fifty μL of the mixture in well 2 was removed and added to well 3 and mixed as above. Serial dilutions were continued in the same manner through well 12. Fifty μL was removed from well 12 so that all contained 50 μL. Fifty μL of the working inoculum was then added to all test wells. A growth control well was prepared by adding 50 μL of working inoculum and 50 μL of MHB to an empty well. The plates were then incubated at 37° C. overnight, removed from the incubator and each well was read on a plate reading mirror. The lowest concentration (MIC) of test compound that inhibited the growth of the bacteria was recorded.
(§6) MIC, MIC50 and MIC90 values were determined according to CLSI methodology. S. pneumoniae and H. influenzae isolates were obtained from Eurofins-Medinet and are recent clinical isolates. S. aureus strains were collected from various geographical sources.

[4] = test system: Klebsiella pneumoniae KP109, ATCC 13883; experiment: MIC assay, KP109; assay type: cell-based; settings: ATCC13883, Table 9, read-out: MIC Klebsiella pneum ATCC 13883
[5] = test system: Enterococcus faecalis EF103, ATCC 29212; experiment: MIC assay, EF103; assay type: cell-based
[6] = test system: H. influenzae isolates (Eurofins-Medinet, recent clinical isolates); experiment: MIC50 and MIC90 analysis (Example 22)
Procedure: as §4, §5, §6

[7] = test system: Klebsiella pneumoniae KP153, tetracycline-resistant, tet(A), MDR, ESBL+; experiment: MIC assay, KP153; assay type: cell-based; settings: Table 9, read-out: MIC Klebsiella pneum KP153 (tet)A
[8] = test system: Streptococcus pneumoniae SP160, tetracycline-resistant, tet(M); experiment: MIC assay, SP160; assay type: cell-based
[9] = test system: Pseudomonas aeruginosa PA111, ATCC 27853; experiment: MIC assay, PA111; assay type: cell-based; settings: ATCC27853, Table 9, read-out: MIC P. aeruginosa ATCC 27853
[10] = test system: Staphylococcus aureus SA161, HA-MRSA, tetracycline-resistant, tet(M); experiment: MIC assay, SA161; assay type: cell-based
[11] = test system: S. pneumoniae isolates (Eurofins-Medinet, recent clinical isolates); experiment: MIC50 and MIC90 analysis (Example 22)
Procedure: as §4, §5, §6

in vivo = settings: Sprague-Dawley, rat
[12] = test system: S. aureus ATCC 13709 (Smith); experiment: Mouse systemic infection model, S. aureus septicemia; settings: survival after 48 hours
[13] = test system: Escherichia coli EC155, tetracycline-resistant, tet(A); experiment: MIC assay, EC155; assay type: cell-based
[14] = test system: E. coli DH10B(pBAD-tetM), expressing tet(M); experiment: MIC against recombinant E. coli expressing tet(M); assay type: cell-based; settings: for MIC: Escherichia coli
Text: (§1) Constructs were transformed into E. coli DH10B for expression. Recombinant strains were pre-induced under optimized conditions with L-arabinose prior to use as inocula in CLSI standardized MIC assays.

[15] = test system: Staphylococcus aureus SA101, ATCC 29213, MSSA; experiment: MIC assay, SA101; assay type: cell-based
[16] = test system: Acinetobacter baumannii AB110, ATCC 19606; experiment: MIC assay, AB110; assay type: cell-based; settings: ATCC19606, Table 9, read-out: MIC A.baum AB110
[17] = test system: tet(M) strains of S. pneumoniae; experiment: MIC, CLSI methodology, recent clinical isolates (Example 21); assay type: cell-based; settings: Streptococcus pneumoniae, read-out: MIC against tet(M) strains of S. pneumoniae
Procedure: (§2) The assays were run as follows.
(§3) The antibacterial activities of Compounds MIC values were determined according to CLSI methodology. Recent clinical isolates were obtained from Eurofins-Medinet. Antibiotics were obtained from standard commercial sources.

[18] = test system: tet(M) and tet(S) strains of E. faecalis; experiment: as above; assay type: cell-based; settings: Enterococcus faecalis, read-out: MIC against tet(M) and tet(S) strains of E. faecalis
Procedure: as §2, §3

[19] = test system: tet(M) strains of S. aureus; experiment: as above; assay type: cell-based; settings: Staphylococcus aureus, read-out: MIC against tet(M) strains of S. aureus
Procedure: as §2, §3

[20] = test system: tet(K) strains of S. aureus; experiment: as above; assay type: cell-based; settings: Staphylococcus aureus, read-out: MIC against tet(K) strains of S. aureus
Procedure: as §2, §3

E. coli ATCC 25922 = experiment: Mouse systemic infection model, E. coli septicemia; settings: survival after 48 hours
[21] = test system: E. coli DH10B(pBAD-tetK), expressing tet(K); experiment: MIC against recombinant E. coli expressing tet(K); assay type: cell-based; settings: for MIC: Escherichia coli
Text: as §1

[22] = test system: Staphylococcus aureus SA158, tetracycline-resistant tet(K); experiment: MIC assay, SA158; assay type: cell-based

In the case of CN(C)CC(C)(C)CNc1nc(Cl)c2c(c1O)C(=O)C1=C(O)[C@]3(O)C(=O)C(C(N)=O)=C(O)[C@@H](N(C)C)[C@@H]3C[C@@H]1C2 [Compound 151], the MIC ([1]; Table 9, read-out: MIC S. aureus ATCC 13709) was 0.5 µg/mL (≈ 0.865 µM), the MIC ([1]; Table 12, read-out: MIC S. aureus ATCC 13709) was 0.5 µg/mL (≈ 0.865 µM) and the MIC ([2]; ATCC49619, Table 8, read-out: MIC S. pneumoniae ATCC 49619) was 0.063 µg/mL (≈ 0.109 µM). The MIC ([2]; ATCC49619, Table 9, read-out: MIC S. pneum ATCC 49619) was 0.016 µg/mL (≈ 0.0277 µM), the MIC Range ([3]; S. aureus (n = 20)) was 0.063 to 0.5 µg/mL and the MIC50 ([3]; Staphylococcus aureus) was 0.13 µg/mL (≈ 0.225 µM). It also gave an MIC90 ([3]; Staphylococcus aureus) of 0.25 µg/mL (≈ 0.432 µM), an MIC [4] of 2 µg/mL (≈ 3.46 µM) and an MIC ([5]; Enterococcus faecalis, ATCC29212, Table 8, read-out: MIC E. faecalis ATCC 29212) of 0.25 µg/mL (≈ 0.432 µM). The “MIC E. faecalis ATCC 29212” value ([5]; Table 9) was 0.25 µg/mL (≈ 0.432 µM), the MIC Range ([6]; H. influenzae (n = 12)) was 0.25 to 2 µg/mL and the MIC50 ([6]; Haemophilus influenzae) was 1 µg/mL (≈ 1.73 µM). For the same molecule, the MIC90 ([6]; Haemophilus influenzae) was 1 µg/mL (≈ 1.73 µM), the MIC [7] was 8 µg/mL (≈ 13.8 µM) and the MIC ([8]; Table 8, read-out: MIC S. pneumoniae tetM) was 0.5 µg/mL (≈ 0.865 µM). The MIC ([8]; Table 9, read-out: MIC S. pneum SP160 (tet)M) was 0.125 µg/mL (≈ 0.216 µM), the MIC [9] was 32 µg/mL (≈ 55.4 µM) and the MIC ([10]; Table 8, read-out: MIC S. aureus MRSA, tetM) was 2 µg/mL (≈ 3.46 µM). For the same molecule, the MIC ([10]; Table 9, read-out: MIC MRSA (tet)M SA161) was 2 µg/mL (≈ 3.46 µM), the MIC Range ([11]; S. pneumoniae (n = 20)) was “≦0.016-0.063 μg/ml” and the MIC50 ([11]; Streptococcus pneumoniae) was at most 0.016 µg/mL. It also gave an MIC90 ([11]; Streptococcus pneumoniae) of 0.063 µg/mL (≈ 0.109 µM), an AUC(0-t) (in vivo; iv, 1 mg/kg) of 4870 ng·h/mL and a Cmax (in vivo; iv, 1 mg/kg) of 2400 ng/mL. It also gave a Tmax (in vivo; iv, 1 mg/kg) of 13.2 min, a bioavailability (in vivo; oral, 10 mg/kg) of 0.8% and an AUC(0-t) (in vivo; po, 10 mg/kg) of 395 ng·h/mL. It also gave a Cmax (in vivo; po, 10 mg/kg) of 69.8 ng/mL, a Tmax (in vivo; po, 10 mg/kg) of 49.8 min and a half-life (in vivo; po, 10 mg/kg) of 313 min. For the same molecule, the “PD50 in the mouse septicemia model against S. aureus” value ([12]; CD-1 mice, IP infection, intravenous treatment one hour post-challenge) was 0.36 mg/kg, the PD50 ([12]; mouse septicemia, S. aureus ATCC 13709, intravenous treatment one hour post-challenge) was 0.36 mg/kg and the MIC ([13]; Table 8, read-out: MIC E. coli tetA) was 8 µg/mL (≈ 13.8 µM). For the same molecule, the MIC ([13]; Table 9, read-out: MIC E. coli EC155 (tet)A) was 8 µg/mL (≈ 13.8 µM), the MIC ([14]; read-out: MIC, TetM induced) was 1 µg/mL and the MIC ([14]; read-out: MIC, Uninduced) was 0.5 µg/mL. The “Ratio (TetM induced / Uninduced)” value ([14]; ratio of MICs) was 2, the “Effect of expression of (tet)M on activity” value ([14]; result in words) was “minimally affected” and the MIC ([15]; Table 8, read-out: MIC S. aureus ATCC 29213) was 0.25 µg/mL (≈ 0.432 µM). It also gave an MIC ([15]; Table 9, read-out: MIC S. aureus ATCC 29213) of 0.25 µg/mL (≈ 0.432 µM), an MIC [16] of 2 µg/mL (≈ 3.46 µM) and an MIC [17] of at most 0.25 µg/mL. The MIC [18] was at most 4 µg/mL, the MIC [19] was at most 8 µg/mL and the MIC [20] was at most 1 µg/mL. For the same molecule, the “PD50 in the mouse septicemia model against E. coli” value (E. coli ATCC 25922; CD-1 mice, IP infection, treatment one hour post-challenge) was 17.0 mg/kg, the PD50 (E. coli ATCC 25922; mouse septicemia, E. coli ATCC 25922, treatment one hour post-challenge) was 17.0 mg/kg and the MIC ([21]; read-out: MIC, TetK Induced) was 1 µg/mL. The MIC ([21]; read-out: MIC, Uninduced) was 1 µg/mL, the “MIC ratio, TetK induced to uninduced” value ([21]; ratio of TetK induced to uninduced MIC) was 1 and the “Effect of expression of (tet)K on activity” value ([21]; result in words) was “unaffected”. For the same molecule, the MIC ([22]; Table 8, read-out: MIC S. aureus tetK) was 0.13 µg/mL (≈ 0.225 µM) and the MIC ([22]; Table 9, read-out: MIC S. aureus SA158 (tet)K) was 0.125 µg/mL (≈ 0.216 µM).
